Laboratory results published in article PMC11946101, “Structural Insights into Salinosporamide a Mediated Inhibition of the Human 20S Proteasome” (Molecules, 2025).

Tests used:
Type in all cases: biochemical
[1] = system: T1, Trichomonas vaginalis 20S proteasome (Tv20S) subunit β5; test: IC50 for the individual proteolytic subunit (Figure S5)
T1 construct: Tv20S, whole complex; with other subunits of the Tv20S proteasome

[2] = target: T2, human 20S proteasome subunit β1 (Homo sapiens, UniProt P28072); test: cryo-EM structure at […] Å; IC50 with Z-LLE-amc
T2 construct: gene PSMB6; human constitutive 20S proteasome (h20S), whole complex; catalytic N-terminal Thr1; with other subunits of the 20S proteasome (α1–α7, β1–β7)

[3] = target: T3, human 20S proteasome subunit β2 (Homo sapiens, UniProt Q99436); test: cryo-EM structure at […] Å; IC50 with Z-VLR-amc
T3 construct: gene PSMB7; human constitutive 20S proteasome (h20S), whole complex; catalytic N-terminal Thr1; with other subunits of the 20S proteasome (α1–α7, β1–β7)

[4] = target: T4, human 20S proteasome subunit β5 (Homo sapiens, UniProt P28074); test: cryo-EM structure at […] Å; IC50 with Suc-LLVY-amc
T4 construct: gene PSMB5; human constitutive 20S proteasome (h20S), whole complex; catalytic N-terminal Thr1; with other subunits of the 20S proteasome (α1–α7, β1–β7)

[5] = system: T5, Trichomonas vaginalis 20S proteasome (Tv20S) subunit β1; test: IC50 for the individual proteolytic subunit (Figure S5)
T5 construct: Tv20S, whole complex; with other subunits of the Tv20S proteasome

T3 sequence (Q06323 whole entry): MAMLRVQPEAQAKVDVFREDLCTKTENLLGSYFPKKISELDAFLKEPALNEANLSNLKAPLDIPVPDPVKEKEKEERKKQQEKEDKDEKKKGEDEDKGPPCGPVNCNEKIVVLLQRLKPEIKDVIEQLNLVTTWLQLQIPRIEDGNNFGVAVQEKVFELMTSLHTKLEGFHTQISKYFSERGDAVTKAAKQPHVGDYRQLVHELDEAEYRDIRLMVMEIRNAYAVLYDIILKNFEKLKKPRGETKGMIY
T3 sequence (Q99436 44-277): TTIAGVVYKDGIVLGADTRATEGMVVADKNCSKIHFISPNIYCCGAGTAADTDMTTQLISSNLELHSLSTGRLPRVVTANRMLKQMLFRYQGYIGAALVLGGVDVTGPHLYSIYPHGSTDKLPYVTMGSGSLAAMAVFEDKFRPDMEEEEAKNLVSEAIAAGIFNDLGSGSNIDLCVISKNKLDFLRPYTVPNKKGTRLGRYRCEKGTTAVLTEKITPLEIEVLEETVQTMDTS
T2 sequence (Q06323 whole entry): as the sequence (Q06323 whole entry) above
T2 sequence (P28072 35-239): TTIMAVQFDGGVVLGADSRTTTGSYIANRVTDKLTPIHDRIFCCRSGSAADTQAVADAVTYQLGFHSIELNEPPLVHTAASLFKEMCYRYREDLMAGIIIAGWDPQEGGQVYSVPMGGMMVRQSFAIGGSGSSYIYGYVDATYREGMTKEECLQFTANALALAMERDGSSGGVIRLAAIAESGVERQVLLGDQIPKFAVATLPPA
T4 sequence (Q06323 whole entry): as the sequence (Q06323 whole entry) above
T4 sequence (P28074 60-263): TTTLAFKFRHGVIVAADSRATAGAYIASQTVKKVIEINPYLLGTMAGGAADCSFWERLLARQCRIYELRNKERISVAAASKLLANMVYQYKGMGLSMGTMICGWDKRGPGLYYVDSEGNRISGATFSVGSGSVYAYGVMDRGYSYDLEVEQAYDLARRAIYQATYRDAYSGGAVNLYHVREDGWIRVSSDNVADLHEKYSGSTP

## C[C@@]12OC(=O)[C@]1([C@@H](O)[C@@H]1C=CCCC1)NC(=O)[C@@H]2CCCl [MZB, Marizomib]
[1]
  IC50: 0.0039 ± 0.0002 µM
[2]
  IC50: 0.597 µM
[3]
  IC50: 0.326 µM
[4]
  IC50: 0.0185 µM
[5]
  IC50: 0.244 ± 0.0722 µM
